Laboratory results taken from patent US9090593B2, “Bicyclic compounds as Pim inhibitors” (AMGEN INC., priority 2010, dated 2015).

Experiments:
[1] = target: T1, full length recombinant Pim-1 protein (Homo sapiens, UniProt P11309); assay: Pim-1 enzyme assay (HTRF, phosphorylation of biotinylated-BAD (S112) peptide); format: biochemical; settings: read-out: Pim_1_IC50
T1 construct: by full length recombinant Pim-1, Pim-2, or Pim-3 protein; hexahistidine tag followed by a thrombin cleavage site (N); made in house; host or cells: Sf9 (baculovirus) or E. coli (pET28)
T1 sequence (P11309 whole entry): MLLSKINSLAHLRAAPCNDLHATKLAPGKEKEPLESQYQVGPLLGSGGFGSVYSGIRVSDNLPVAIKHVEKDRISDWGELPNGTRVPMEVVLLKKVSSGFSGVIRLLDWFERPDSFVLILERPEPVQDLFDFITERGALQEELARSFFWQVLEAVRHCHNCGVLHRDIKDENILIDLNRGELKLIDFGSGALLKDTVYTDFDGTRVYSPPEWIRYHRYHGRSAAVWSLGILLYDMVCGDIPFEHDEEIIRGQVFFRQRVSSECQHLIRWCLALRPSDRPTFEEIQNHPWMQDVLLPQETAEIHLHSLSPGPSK
Description: (§1) These cDNAs were used as templates in PCR reactions to produce full-length DNA clones of the PIMs. […] PCR products were digested with […] and EcoRI for Pim-1 and BamHI and EcoRI for Pim-2 and ligated into a modified baculovirus transfer vector (pFastBac1) cleaved with BamHI and EcoRI. For bacterial expression, the same cleaved PCR products encoding Pim-1 or Pim-2 were ligated into a modified E. coli expression vector pET28(a) cleaved with BamHI and EcoRI Amino-terminal hexahistidine tags followed by a thrombin cleavage site were previously added to the vectors using standard methods of molecular biology. Recombinant baculoviruses expressing Pim-1 or Pim-2 were made using standard methods (Fastbac manual, Invitrogen, Carlsbad, Calif.). Infection of Sf9 cells was done at an m.o.i. of greater than 5 for 24-48 h. Cells were harvested by centrifugation and frozen at −80 C. For E. coli expression, cells carrying pET28-His6-Th-Pim-1 or pET28-His6-Th-Pim-2 were picked from a single colony and grown o/n in LB media. The o/n culture was used to inoculate a 2 liter flask with 500 mL media. This was grown o/n and used to inoculate 15-20 liters of Terrific Broth in a New Brunswick Scientific fermentor. The E. coli were grown at 37° C. to and OD600>1.6. The temperature was dropped to 18° C. and o/n expression was induced with 0.5 mM IPTG. Cells were harvested by centrifugation and frozen at −80° C.
(§2) This step was repeated 3× and the resin was transferred to a 2.5 cm glass column. Ten column volumes of wash buffer (0.05 M HEPES, pH 8.0, 0.1 M NaCl, 0.01 M 2-mercaptoethanol, 10% (w/v) glycerol) were applied to the resin followed by 10 column volumes of elution buffer (0.05 M HEPES, pH 8.0, 0.25 M NaCl, 0.01 M 2-mercaptoethanol, 10% (w/v) glycerol, 0.1 M imidazole). Fractions were analyzed by SDS-PAGE and those containing the protein of interest were pooled and concentrated. The concentrated protein was applied to an Amersham Superdex 75 (XK 26/60) column equilibrated in 0.025 M Tris-HCl, pH 7.5, 0.1 M NaCl, 0.01 M 2-mercaptoethanol, 10% (w/v) glycerol. […] Fractions containing the monomeric protein of interest were pooled, concentrated to ˜2 mg/mL, and stored at −80° C.
(§3) The phosphorylation of biotinylated-BAD (S112) peptide by full length recombinant Pim-1, Pim-2, or Pim-3 protein was detected with streptavidin:Allophycocyanin (APC) conjugate and a europium (Eu) labeled antibody directed against phosphorylated-BAD (S112). […] The fluorescence is directly proportional to the amount of phosphorylated BAD peptide present in the reaction.
(§4) A reference compound was included on each assay plate in order to validate that plate; on one plate of every assay run, two additional reference compounds were included.
(§5) The final buffer conditions were as follows: 60 mM Hepes, pH 7.0, 0.05% BSA, 2 mM DTT. […] The reaction was stopped by the addition of 3 mM EDTA, and fluorescence was measured by an HTRF® Rubystar microplate reader. For each plate, percent of control (POC) values were calculated for each well. Values for the IC50 IP were estimated using a standard 4-parameter logistic model.

[2] = target: T2, full length recombinant Pim-2 protein (Homo sapiens, UniProt Q9P1W9); assay: Pim-2 enzyme assay (HTRF, phosphorylation of biotinylated-BAD (S112) peptide); format: biochemical; settings: read-out: Pim2_IC50
T2 construct: by full length recombinant Pim-1, Pim-2, or Pim-3 protein; hexahistidine tag followed by a thrombin cleavage site (N); made in house; host or cells: Sf9 (baculovirus) or E. coli (pET28)
T2 sequence (Q9P1W9 whole entry): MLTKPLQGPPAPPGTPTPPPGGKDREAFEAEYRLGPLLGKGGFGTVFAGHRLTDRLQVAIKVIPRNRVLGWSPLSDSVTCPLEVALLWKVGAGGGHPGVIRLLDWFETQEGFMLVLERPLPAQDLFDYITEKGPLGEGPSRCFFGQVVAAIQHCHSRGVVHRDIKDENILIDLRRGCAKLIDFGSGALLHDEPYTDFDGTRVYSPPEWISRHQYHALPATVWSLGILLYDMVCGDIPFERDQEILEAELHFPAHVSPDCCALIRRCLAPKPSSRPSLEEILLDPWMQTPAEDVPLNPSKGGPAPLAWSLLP
Description: as §1, §2, §3, §4, §5

| IC50 [1] [nM] | IC50 [2] [nM] | Structure (SMILES) |
| --- | --- | --- |
| 322 | 629 | Oc1cncc(-c2n[nH]c3ccc(-c4ccccc4F)cc23)n1 [Example 435] |
| 4 | 17 | Nc1ncc(-c2ccc3[nH]nc(-c4cncc(O[C@H]5CNCCC56CC6)n4)c3c2)cn1 [Example 464] |
| 112 | 617 | COc1cc(N2CCC(N)CC2)nc(-c2n[nH]c3ccc(-c4c(F)cccc4F)cc23)n1 [Example 472] |
| 30 | 192 | CNC(=O)c1ccc2[nH]nc(-c3cncc(N[C@@H]4CCCNC4)n3)c2c1 [Example 475] |
| 106 | 203 | CNC(=O)c1ccc2[nH]nc(-c3cncc(N4CCC(N)CC4)n3)c2c1 [Example 480] |
| 46 | 109 | CN(C)c1nc(-c2c[nH]c3ccc(-c4c(F)cccc4F)cc23)cc(=O)[nH]1 [Example 492] |
| 159 | > 1000 | CN(C)c1cc(=O)[nH]c(-c2c[nH]c3ccc(-c4c(F)cccc4F)cc23)n1 [Example 496] |
| 46 | 207 | COC(=O)c1ccc2[nH]nc(-c3ccnc(O[C@@H]4CCCNC4)n3)c2c1 [Example 497] |
| 70 | 726 | COC(=O)c1ccc2[nH]nc(-c3nccc(O[C@@H]4CCCNC4)n3)c2c1 [Example 498] |
| 364 | > 1000 | CC(C)Nc1cc(=O)[nH]c(-c2c[nH]c3ccc(-c4c(F)cccc4F)cc23)n1 [Example 499] |
| 47 | 93 | CC(C)Oc1cncc(-c2ccc3[nH]cc(-c4nnc(N[C@@H]5CCNC5)o4)c3c2)n1 [Example 512] |
| 90 | 446 | CC(C)Nc1nnc(-c2c[nH]c3ccc(-c4cncc(OC(C)C)n4)cc23)o1 [Example 522] |
| 4 | 56 | COC(=O)c1ccc2[nH]cc(-c3cncc(N[C@@H]4CCCNC4)n3)c2c1 [Example 532] |
| 70 | 262 | CCCCc1nc(-c2n[nH]c3ccc(-c4c(F)cccc4F)cc23)cc(=O)[nH]1 [Example 535] |
| 30 | 208 | N#Cc1ccc2[nH]cc(-c3cncc(N[C@@H]4CCCNC4)n3)c2c1 [Example 536] |
| 241 | > 1000 | O=C(O)c1ccc2[nH]cc(-c3cncc(N[C@@H]4CCCNC4)n3)c2c1 [Example 538] |
| 70 | 396 | N#Cc1ccc2[nH]nc(-c3cncc(N[C@@H]4CCCNC4)n3)c2c1 [Example 540] |

More lines, now with the values behind:

| Structure (SMILES) | IC50 [1] [nM] | IC50 [2] [nM] |
| --- | --- | --- |
| C[C@@H]1COCCN1c1ccc2[nH]nc(-c3cncc(O[C@H]4CNCCC45CC5)n3)c2c1 [Example 403] | 70 | 58 |
| O=C1COCCN1c1ccc2[nH]nc(-c3cncc(O[C@H]4CNCCC45CC5)n3)c2c1 [Example 405] | 159 | 447 |
| Brc1ccc2[nH]nc(-c3cncc(O[C@H]4CNCCC45CC5)n3)c2c1 [Example 422] | 22 | 82 |
| CN1CCC(Oc2cncc(-c3n[nH]c4ccc(-c5c(F)cccc5F)cc34)n2)CC1 [Example 445] | 20 | 43 |
| O[C@@H]1CN(c2cncc(-c3n[nH]c4ccc(-c5c(F)cccc5F)cc34)n2)C[C@@H]1O [Example 448] | 105 | 137 |
| OC1CN(c2cncc(-c3n[nH]c4ccc(-c5c(F)cccc5F)cc34)n2)CC1O (stereo not drawn) [Example 449] | 159 | 639 |
| OC1CN(c2cncc(-c3n[nH]c4ccc(-c5c(F)cccc5F)cc34)n2)CC1O (stereo not drawn) [Example 450] | 159 | 453 |
| CNC(=O)c1ccc2[nH]nc(-c3cncc(NC4CCNCC4)n3)c2c1 [Example 471] | 171 | 329 |
| CNC(=O)c1ccc2[nH]nc(-c3cncc(O[C@@H]4CCCNC4)n3)c2c1 [Example 478] | 180 | > 1000 |
| COc1cc(N[C@@H]2CCCNC2)nc(-c2c[nH]c3ccc(-c4c(F)cccc4F)cc23)n1 [Example 479] | 112 | 77 |
| CN(C)C(=O)c1ccc2[nH]nc(-c3ccnc(N[C@@H]4CCCNC4)n3)c2c1 [Example 481] | 444 | 719 |
| CN(C)C(=O)c1ccc2[nH]nc(-c3cncc(N4CCC(N)CC4)n3)c2c1 [Example 484] | 374 | > 1000 |
| COC(=O)c1ccc2[nH]nc(-c3nccc(NC4CCNCC4)n3)c2c1 [Example 485] | 26 | 26 |
| COC(=O)c1ccc2[nH]nc(-c3nccc(N[C@@H]4CCCNC4)n3)c2c1 [Example 486] | 72 | 543 |
| CN(C)C(=O)c1ccc2[nH]nc(-c3cncc(NC4CCNCC4)n3)c2c1 [Example 487] | 159 | 217 |
| COC(=O)c1ccc2[nH]nc(-c3nccc(N4CCC(N)CC4)n3)c2c1 [Example 488] | 46 | 55 |
| COc1cc(-c2c[nH]c3ccc(-c4c(F)cccc4F)cc23)nc(O[C@@H]2CCCNC2)n1 [Example 493] | 834 | 653 |

| Structure (SMILES) | IC50 [1] [nM] | IC50 [2] [nM] |
| --- | --- | --- |
| CN(C)C(=O)c1ccc2[nH]nc(-c3cncc(N[C@@H]4CCCNC4)n3)c2c1 [Example 494] | 834 | > 1000 |
| CC(C)Nc1nc(-c2c[nH]c3ccc(-c4c(F)cccc4F)cc23)cc(=O)[nH]1 [Example 500] | 9 | 19 |
| CC1CCCCN1c1nc(-c2ccc3[nH]cc(-c4cncc(O[C@@H]5CCCNC5)n4)c3c2)cs1 (stereo partly drawn) [Example 501] | 91 | 812 |
| c1ncc(-c2ccc3[nH]cc(-c4cncc(O[C@@H]5CCCNC5)n4)c3c2)cc1NC1CC1 [Example 502] | 20 | 424 |
| Clc1cncc(-c2ccc3[nH]cc(-c4cncc(O[C@@H]5CCCNC5)n4)c3c2)c1 [Example 505] | 29 | 225 |
| CC(C)Oc1cncc(-c2ccc3[nH]cc(-c4nnc(N[C@H]5CCNC5)o4)c3c2)n1 [Example 511] | 98 | 480 |
| CC(C)Oc1cncc(-c2ccc3[nH]cc(-c4nnc(NC5CCNCC5)o4)c3c2)n1 [Example 513] | 48 | 218 |
| CC(C)Oc1cncc(-c2ccc3[nH]cc(-c4nnc(N[C@H]5CCCNC5)o4)c3c2)n1 [Example 514] | 52 | 194 |
| CC(C)Oc1cncc(-c2ccc3[nH]cc(-c4nnc(N5CCCC5)o4)c3c2)n1 [Example 520] | 52 | 527 |
| c1cnc(-c2c[nH]c3ccc(-c4cncc(C5CC5)n4)cc23)cn1 [Example 521] | 425 | > 1000 |
| CC(C)Oc1cncc(-c2ccc3[nH]cc(-c4nnc(Nc5ccccc5)o4)c3c2)n1 [Example 523] | 359 | > 1000 |
| CN(C)c1nc(-c2n[nH]c3ccc(-c4c(F)cccc4F)cc23)cc(=O)[nH]1 [Example 526] | 34 | 91 |
| O=c1cc(-c2n[nH]c3ccc(-c4c(F)cccc4F)cc23)nc[nH]1 [Example 530] | 834 | 565 |
| COC(=O)c1ccc2[nH]cc(-c3nccc(N[C@@H]4CCCNC4)n3)c2c1 [Example 531] | 20 | 182 |
| COC(=O)c1ccc2[nH]cc(-c3ccnc(N[C@@H]4CCCNC4)n3)c2c1 [Example 533] | 105 | 237 |
| O=C(O)c1ccc2[nH]cc(-c3nccc(N[C@@H]4CCCNC4)n3)c2c1 [Example 539] | 834 | > 1000 |
| O=c1cc(-c2n[nH]c3ccc(-c4c(F)cccc4F)cc23)nc(N2CC[C@H](O)C2)[nH]1 [Example 543] | 30 | 58 |
